Earlier results on one compound are cited in patent publication US20260053727A1, “PERSONAL CARE COMPOSITIONS WITH ENZYME-MODIFIED OILS (EMOS)” (GLYCOSBIO INC., priority 2023, published 2026).

Molecules are shown by their SMILES.

For the data set the following is noted: commonly known.

As to `O=C([O-])c1ccccc1.[Na+]` [sodium benzoate], the antimicrobial activity result was “weakly antimicrobial”.
